Experimental data as given in patent US20190315823A1, “SMALL CATIONIC ANTI-BIOFILM AND IDR PEPTIDES” (priority 2013, published 2019).
Ends that are not written are not given here.

How the values were obtained:
[1] = system: human peripheral blood mononuclear cells (MCP-1); assay: SPOT-synthesized derivative screen: production of chemokine MCP-1; type: cell-based; details: Table 12, No LPS, human PBMC, peptide at ~18-24 μM; for MCP1: background subtracted 139 (HH2 derivatives), 170 (1018 derivatives), 242 (1002 and hybrid peptides) pg/ml
Procedure, shortened: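 PBMC from heparinized healthy-donor venous blood, Ficoll-separated, cultured at 0.75 to 1×10^6 cells/ml, 37 °C, 5% CO2, under the treatment regimens. MCP-1 in cell-free supernatants measured by capture ELISA.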

[2] = system: LPS-stimulated human peripheral blood mononuclear cells (IL1-β); type: cell-based; details: Table 12, cells stimulated with 10 ng/ml LPS; for IL1β Production: LPS alone 1313 (HH2 derivatives), 1927 (1018 derivatives), 2455 (1002 and hybrid peptides) pg/ml
[3] = system: methicillin resistant Staphylococcus aureus (MRSA) biofilm; details: approximate peptide concentration […] (around 3 μg/ml); compared to untreated samples
Procedure, shortened: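 Static biofilm assay: 1/100 dilutions of overnight cultures grown in BM2 medium (pH 7, glucose, Casamino Acids) or Luria Broth with peptide added at time zero. After 22–46 h, adherent biofilm was stained with crystal violet and read at 595 nm. Some peptides were also tested on K. pneumoniae under flow in a Bioflux system.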

| Substance | Fold increase in MCP1 cf. untreated cells [1] | MCP1 [1] [pg/mL] | Fold change in IL1β relative to no peptide LPS stimulated cells [2] | IL1β Production [2] [pg/mL] | % Biofilm inhibition [3] [%] |
| --- | --- | --- | --- | --- | --- |
| HH2-L2: single substituted HH2 peptide (VLLRIRVAVIRA-NH2) | 13 | 1950 | 0.89 | 1172 | 69 |
| 1018-A8: single substituted 1018 peptide (VRLIVAVAIWRR-NH2) [Peptide 1018-A8] | 3.7 | 460 | 0.10 | 127 | 60 |
| 1018-L2: single substituted 1018 peptide (VLLIVAVRIWRR-NH2) [Peptide 1018-L2] | 0.8 | -35 | 0.32 | 426 | 61 |
| HH2-R3: single substituted HH2 peptide (VQRRIRVAVIRA-NH2) | 60 | 9987 | 1.33 | 1746 | 0 |
| 1002-G6: single substituted 1002 peptide (VQRWLGVWRIRK-NH2) [Peptide 1002-G6] | 0.9 | -36.2 | 0.45 | 1098 | 26 |
| HH2-I9: single substituted HH2 peptide (VQLRIRVAIIRA-NH2) | 50 | 8276 | 0.75 | 980 | 73 |
| 1018-R3: single substituted 1018 peptide (VRRIVAVRIWRR-NH2) [Peptide 1018-R3] | 3.0 | 349 | 1.25 | 1636 | 29 |
| HH2-A1: single substituted HH2 peptide (AQLRIRVAVIRA-NH2) | 14 | 2254 | 1.21 | 1587 | 56 |
| HH2-G3: single substituted HH2 peptide (VQGRIRVAVIRA-NH2) | 1.7 | 117 | 1.29 | 1687 | 21 |
| 1018-K3: single substituted 1018 peptide (VRKIVAVRIWRR-NH2) [Peptide 1018-K3] | 49 | 8203 | 1.13 | 1489 | 15 |
| 1002-R1: single substituted 1002 peptide (RQRWLIVWRIRK-NH2) [Peptide 1002-R1] | 5.3 | 1043.2 | 0.05 | 127 | 67 |
| 1002-K2: single substituted 1002 peptide (VKRWLIVWRIRK-NH2) [Peptide 1002-K2] | 2.6 | 392.4 | 0.05 | 127 | 69 |
| HH2-Q1: single substituted HH2 peptide (QQLRIRVAVIRA-NH2) | 65 | 10838 | 0.89 | 1171 | 57 |
| 1002-K4: single substituted 1002 peptide (VQRKLIVWRIRK-NH2) [Peptide 1002-K4] | 1.4 | 106.3 | 0.43 | 1065 | 0 |
| 1002-L9: single substituted 1002 peptide (VQRWLIVWLIRK-NH2) [Peptide 1002-L9] | 1.8 | 199.1 | 0.05 | 127 | 57 |
| 1002-W12: single substituted 1002 peptide (VQRWLIVWRIRW-NH2) [Peptide 1002-W12] | 2.7 | 412.5 | 0.05 | 127 | 71 |
| HH2-L7: single substituted HH2 peptide (VQLRIRLAVIRA-NH2) | 19 | 3138 | 1.05 | 1378 | 68 |
| 1002-G12: single substituted 1002 peptide (VQRWLIVWRIRG-NH2) [Peptide 1002-G12] | 0.9 | -36.2 | 0.10 | 240 | 50 |
| 1018-A1: single substituted 1018 peptide (ARLIVAVRIWRR-NH2) [Peptide 1018-A1] | 1.9 | 161 | 0.13 | 170 | 51 |
| 1002-V11: single substituted 1002 peptide (VQRWLIVWRIVK-NH2) [Peptide 1002-V11] | 3.2 | 541.2 | 0.05 | 127 | 68 |
| 1018-I3: single substituted 1018 peptide (VRIIVAVRIWRR-NH2) [Peptide 1018-I3] | 0.7 | -50 | 0.12 | 156 | 68 |
| HH2-R9: single substituted HH2 peptide (VQLRIRVARIRA-NH2) | 3.4 | 406 | 1.60 | 2099 | 65 |
| 1002-L1: single substituted 1002 peptide (LQRWLIVWRIRK-NH2) [Peptide 1002-L1] | 13.3 | 2988.6 | 0.05 | 127 | 69 |
| 1018-Q10: single substituted 1018 peptide (VRLIVAVRIQRR-NH2) [Peptide 1018-Q10] | 0.7 | -54 | 0.12 | 154 | 38 |
